# Assay results from patent publication US20230220206A1, “REJUVENATING AGENTS FOR ASPHALT RECYCLING” (BASF SE, priority 2020, published 2023).
# Read-outs that look alike come from different tables or passages of the source.
# Experiments:
# [1] = type: physicochemical; conditions: Olexobit 45 + 5% compound
# [2] = Softening point of rejuvenated RAP bitumen; type: physicochemical; conditions: bitumen extracted from RAP + 5% compound
# [3] = BBR of rejuvenated polymer-modified bitumen; type: physicochemical; conditions: Olexobit 45 + 5% compound
# Procedure: (§1) Different bitumen samples were rejuvenated as in Example 1, and the BBR values S (flexural creep stiffness) and m […] were evaluated at −16° C. The results were compared to the not rejuvenated bitumen sample as well as to the bitumen rejuvenated with the benchmark RheoFalt® HP-AM (Comp. 1.3).
# [4] = MSCR test, percentage elastic recovery; type: physicochemical; conditions: bitumen 20/30 + 5% compound
# [5] = MSCR elastic recovery of rejuvenated aged bitumen; type: physicochemical; conditions: aged bitumen 50/70 BP + 5% compound
# [6] = Ageing index (RTFOT ageing) of rejuvenated polymer-modified bitumen; type: physicochemical; conditions: Olexobit 45 + 5% compound; viscosity after ageing divided by viscosity before ageing
# Source text: (§2) Herewith, it will be shown that the positive effects of the here claimed rejuvenating agents can also be applied to PmB, in this case Olexobit 45. Olexobit 45 was therefore rejuvenated according to the procedure of Example 1.
# [7] = MSCR elastic recovery of rejuvenated aged bitumen; type: physicochemical; conditions: aged bitumen 50/70 PCK Schwedt + 5% compound
# [8] = Softening point of rejuvenated polymer-modified bitumen; type: physicochemical; conditions: Olexobit 45 + 5% compound
# [9] = Force ductility of rejuvenated polymer-modified bitumen; type: physicochemical; conditions: Olexobit 45 + 5% compound
# Source text: as §2
# [10] = type: physicochemical; conditions: aged bitumen 50/70 PCK Schwedt + 5% compound
# [11] = Softening point of rejuvenated aged bitumen; type: physicochemical; conditions: aged bitumen 50/70 BP + 5% compound
# [12] = Softening point of rejuvenated aged bitumen; type: physicochemical; conditions: aged bitumen 50/70 PCK Schwedt + 5% compound
# [13] = type: physicochemical; conditions: bitumen extracted from RAP + 5% compound
# [14] = bitumen 20/30 + 5% compound
# [15] = MSCR elastic recovery of rejuvenated RAP bitumen; type: physicochemical; conditions: bitumen extracted from RAP + 5% compound
# [16] = MSCR elastic recovery of rejuvenated polymer-modified bitumen; type: physicochemical; conditions: Olexobit 45 + 5% compound
# [17] = Loss tangent from DSR frequency sweep at 60° C.; type: physicochemical
# Source text: In addition, it could be shown that additives according to the present invention perform most of the times better than the common benchmarks according to the standard testing techniques for the low, mid and high temperature range. What cannot be extracted from these measurements however is an indication of the working mechanism.
# [18] = Low temperature performance, bending beam rheometer (BBR) at −16° C.; type: physicochemical; conditions: bitumen 20/30 + 5% compound
# Procedure: as §1
# [19] = Softening point ring & ball of rejuvenated bitumen; conditions: bitumen 20/30 rejuvenated with 5% of the compound, 180° C., 30 minutes
# [20] = type: physicochemical; conditions: aged bitumen 50/70 BP + 5% compound
substance,measurement,setting,value
Polypropylenglycol bis glycidylether,η(135° C.) [mPas],[1],650 mPas
same,SP [° C.],[2],57.0 °C
same,BBR S-value [MPa],[3],120 MPa
same,BBR m-value,[3],0.39
same,MSCR % Rec. (0.1 kPa),[4]; 0.1 kPa,8%
same,MSCR % Rec. (1.6 kPa),[4]; 1.6 kPa,2%
same,MSCR % Rec. (3.2 kPa),[4]; 3.2 kPa,1%
same,MSCR % Rec. (0.1 kPa),[5]; 0.1 kPa,7%
same,MSCR % Rec. (1.6 kPa),[5]; 1.6 kPa,3%
same,MSCR % Rec. (3.2 kPa),[5]; 3.2 kPa,1%
same,AI (ageing index),[6],2.2
same,MSCR % Rec. (0.1 kPa),[7]; 0.1 kPa,5%
same,MSCR % Rec. (1.6 kPa),[7]; 1.6 kPa,1%
same,MSCR % Rec. (3.2 kPa),[7]; 3.2 kPa,0%
same,SP [° C.],[8],48.0 °C
same,Force Ductility Fmax [N],[9],14 N
same,Force Ductility W [J/cm^2],[9],1.1 J/cm^2
same,η(135° C.) [mPas],[10],800 mPas
same,SP [° C.],[11],54.0 °C
same,SP [° C.],[12],52.5 °C
same,η(135° C.) [mPas],[13],"1,100 mPas"
same,η(135° C.) [mPas],[14],900 mPas
same,MSCR % Rec. (0.1 kPa),[15]; 0.1 kPa,10%
same,MSCR % Rec. (1.6 kPa),[15]; 1.6 kPa,6%
same,MSCR % Rec. (3.2 kPa),[15]; 3.2 kPa,3%
same,MSCR % Rec. (0.1 kPa),[16]; 0.1 kPa,15%
same,MSCR % Rec. (1.6 kPa),[16]; 1.6 kPa,4%
same,MSCR % Rec. (3.2 kPa),[16]; 3.2 kPa,1%
same,tan δ,"[17]; aged bitumen 50/70 BP + 5% compound, lowest frequency",75
same,tan δ,"[17]; aged bitumen 50/70 PCK Schwedt + 5% compound, lowest frequency",105
same,tan δ,"[17]; bitumen 20/30 + 5% compound, lowest frequency (0.01 rad/s)",55
same,tan δ,"[17]; bitumen extracted from RAP + 5% compound, lowest frequency",45
same,S-value [MPa] (flexural creep stiffness),[18],105 MPa
same,m-value,[18],0.43
same,SP [° C.] (softening point),[19],50.0 °C
same,η(135° C.) [mPas],[20],800 mPas
